Target: T1, porcine cardiac ventricle myosin (pc-HMM; beta-cardiac myosin heavy chain) (Sus scrofa, UniProt P79293)
T1 construct: gene MYH7; chymotryptic heavy meromyosin (pc-HMM); also S1 (pc-S1); with myosin light chains (RLC, essential light chain)
Assay: stopped-flow FRET (Trp to mant) displacement and multiple-turnover assay; kcat […] s^-1
Type: biochemical

T1 sequence (P79293 whole entry): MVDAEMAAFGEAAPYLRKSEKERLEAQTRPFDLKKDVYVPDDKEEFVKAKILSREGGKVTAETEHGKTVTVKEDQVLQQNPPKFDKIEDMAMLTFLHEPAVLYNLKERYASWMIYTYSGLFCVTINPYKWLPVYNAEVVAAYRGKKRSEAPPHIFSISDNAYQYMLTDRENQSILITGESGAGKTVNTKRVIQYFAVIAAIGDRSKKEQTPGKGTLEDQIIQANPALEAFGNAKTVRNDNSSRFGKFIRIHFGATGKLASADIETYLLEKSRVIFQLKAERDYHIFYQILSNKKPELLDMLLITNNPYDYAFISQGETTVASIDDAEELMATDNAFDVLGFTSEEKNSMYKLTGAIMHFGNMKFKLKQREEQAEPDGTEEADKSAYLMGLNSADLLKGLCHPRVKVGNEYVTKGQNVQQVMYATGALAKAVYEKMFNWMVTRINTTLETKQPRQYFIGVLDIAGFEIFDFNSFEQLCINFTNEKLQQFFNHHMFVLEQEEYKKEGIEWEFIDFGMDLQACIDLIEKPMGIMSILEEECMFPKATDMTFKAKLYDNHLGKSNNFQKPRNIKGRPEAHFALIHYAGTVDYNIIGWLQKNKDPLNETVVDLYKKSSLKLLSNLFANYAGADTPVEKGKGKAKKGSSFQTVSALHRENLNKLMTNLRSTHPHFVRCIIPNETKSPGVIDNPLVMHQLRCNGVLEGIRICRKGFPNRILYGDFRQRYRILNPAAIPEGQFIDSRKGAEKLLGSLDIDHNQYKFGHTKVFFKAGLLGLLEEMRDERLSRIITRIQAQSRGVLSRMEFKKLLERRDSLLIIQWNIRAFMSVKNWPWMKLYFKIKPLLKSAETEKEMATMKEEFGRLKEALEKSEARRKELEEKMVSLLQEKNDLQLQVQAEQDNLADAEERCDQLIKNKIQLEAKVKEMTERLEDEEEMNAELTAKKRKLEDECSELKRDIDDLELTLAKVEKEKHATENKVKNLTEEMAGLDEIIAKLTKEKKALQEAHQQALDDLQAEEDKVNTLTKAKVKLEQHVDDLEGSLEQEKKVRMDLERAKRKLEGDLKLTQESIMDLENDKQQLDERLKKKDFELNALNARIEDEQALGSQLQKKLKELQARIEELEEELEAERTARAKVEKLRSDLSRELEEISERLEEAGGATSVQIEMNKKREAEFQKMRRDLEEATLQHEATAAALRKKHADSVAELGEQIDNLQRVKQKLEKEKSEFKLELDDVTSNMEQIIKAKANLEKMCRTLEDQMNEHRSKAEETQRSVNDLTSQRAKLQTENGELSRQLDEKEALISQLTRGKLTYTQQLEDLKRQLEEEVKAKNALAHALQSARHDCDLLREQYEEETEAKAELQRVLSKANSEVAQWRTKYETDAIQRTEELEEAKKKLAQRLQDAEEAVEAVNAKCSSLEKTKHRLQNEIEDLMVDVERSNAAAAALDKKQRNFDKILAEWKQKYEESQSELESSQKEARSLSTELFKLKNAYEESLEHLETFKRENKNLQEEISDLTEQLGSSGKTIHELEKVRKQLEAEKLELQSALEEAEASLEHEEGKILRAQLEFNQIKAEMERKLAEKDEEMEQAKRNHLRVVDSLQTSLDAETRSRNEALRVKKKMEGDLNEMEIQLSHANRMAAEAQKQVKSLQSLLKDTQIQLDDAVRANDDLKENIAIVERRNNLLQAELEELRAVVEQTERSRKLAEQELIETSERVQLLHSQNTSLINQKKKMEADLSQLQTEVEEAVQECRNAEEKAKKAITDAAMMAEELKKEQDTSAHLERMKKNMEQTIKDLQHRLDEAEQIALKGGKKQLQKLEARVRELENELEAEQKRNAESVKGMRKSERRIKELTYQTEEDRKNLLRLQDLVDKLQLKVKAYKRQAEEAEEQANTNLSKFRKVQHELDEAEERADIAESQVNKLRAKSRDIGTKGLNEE

Q: `CNc1ccccc1C(=O)O[C@H]1C[C@H](n2cnc3c(N)ncnc32)O[C@@H]1COP(=O)(O)OP(=O)(O)OP(=O)(O)O` [mant.dATP] was tested. Which “kcat (s^-1) / Mean” value did it give?
A: Its value is 0.0282 s⁻¹.
